From US20070248590A1, “Modulators of CDC2-like kinases (CLKS) and methods of use thereof” (Sirtris Pharmaceuticals, Inc., priority 2005, published 2007)

Columns and labels:
HDAC = details: in vitro or in vivo, literature; cited from earlier work
[1] = system: PGC-1alpha and SIRT1 phosphorylation in H2.35 cells; test: Metabolic 32P PO4 labeling of H2.35 cells, insulin stimulated; format: cell-based, mouse; details: 30 minutes pretreatment, 40 minute insulin stimulation
Protocol: PGC-1alpha and SIRT1 phosphorylation in vivo is stimulated by insulin and blocked by LY and TG003 as determined by metabolic ^32P PO4 labeling of H2.35 cells infected with adenovirus Flag-Ha-PGC-1alpha or Flag-HA-SIRT1. Cells were infected for 24 hours low glucose DMEM 4% FBS then serum starved for 24 hours in low glucose DMEM 0.5% BSA. Media was then replaced with PO4 free DMEM 0.5% BSA for 30 minutes, and cells were then pretreated with LY or TG003 for 30 minutes before addition of 100 uCi ^32P PO4. Cells were incubated in ^32P PO4 for 20 minutes before a 40 minute insulin stimulation. Cells were then washed with ice-cold PBS, harvested and lysed. Flag-HA-PCC-1alpha and Flag-HA-SIRT1 were immunoprecipitated used anti-flag agarose (Sigma-Aldrich, Cat. #A4596). Immunoprecipitates were washed extensively and analyzed by SDS-PAGE, transferred to PVDF membrane where ^32P signal was analyzed by a Bio-Rad Phosphor-Imager (Bio-Rad Laboratories) (FIG. 20A) and normalized to protein quantitated by western blot using anti-flag antibodies by a Versa-Doc camera system and quantitation software (Bio-Rad Laboratories) (FIG. 20B).

[2] = system: insulin induction of CLK2 alternate splicing in FAO cells; test: CLK2 splicing analysis (RT-PCR with primers flanking exon 4) in FAO cells; format: cell-based, rat; details: 20 μM inhibitor pretreatment
Protocol: Splicing Analysis. Total RNA was isolated from FAO hepatocytes pre-treated with indicated inhibitor then Insulin for 2 hours. RT-PCR was performed using SuperScript One-Step RT-PCR with taq (Invitrogen) on 1 ug of total RNA using primers flanking exon 4 on Clk2 and Clk1.

[3] = system: PEPCK mRNA expression in FAO hepatocytes; test: Pepck mRNA by Q-RT-PCR in FAO hepatocytes; format: cell-based, rat; details: 20 uM TG003 for 7 hours
Protocol: (§1) Cells were grown in F-12+5% FBS then switched to 10% FBS and treated with or without 20 uM TG003 for 7 hours. Total RNA was isolated using Trizol (Invitrogen, Cat. # 15596-026) and reverse transcribed using oligo dT and super script II (Inivtrogen, Cat. # 18064-014). Pepck mRNA was measured by Q-RT-PCR relative to 36B4 control mRNA. Each bar is average+/−stdev N=3.
as §1, with “serum starved O/N and” for “grown in F-12+5% FBS”, “then” for “then switched to 10% FBS and”, “200 nM Insulin” for “20 uM TG003”, “2” for “7”

[4] = system: CLK2 interaction with Sirt1 in HEK 293 cells; test: Co-immunoprecipitation of endogenous Sirt1 with Flag-CLK2 in HEK 293 cells; format: cell-based; details: HEK 293 cells transfected with Flag-CLK2
Protocol: (§2) Immunoprecipitation and Co-Immunoprecipitation. Cells were washed once with PBS containing Phosphatase inhibitors (5 mM Glycerol-2-phosphate, 20 mM NaF, and 0.2 mM Na OrthoVanadate), scraped into tubes, spun down, and lysed by 2× freeze-thaw cycles in 0.4% Triton, 100 mM NaCl, 20 mM KHepes pH 7.9, 1 mM EDTA, Phosphatase inhibitors, 1 mM PMSF, and 1× Protease Inhibitors (Roche). Immunoprecipitations were performed with M2 anti-flag agarose (sigma) or Anti-HA agarose (Roche) for 2 hours rotating at 4 degrees C. followed by 3 washes in lysis buffer. Products were resolved by SDS-PAGE and transferred to PVDF membranes for Western blot analysis.

[5] = system: diet-induced obese (DIO) C57BL/6 mice; test: IP dosing of TG003 in DIO mouse model; format: in vivo
Protocol: Specifically, 5 week old C57BL/6 mice (male 18-22 grams, Charles River Labs, Willmington, Mass.) are placed either on a high fat diet (Research Diets Inc., New Brunswick, N.J., 60% kcal fat Rodent Diet Cat#D12492) or regular chow. Mice are weighed once a week for 5 weeks, test baseline fed glucose, lactate, triglycerides and insulin. At approximately 6 weeks or when mean weight of the DIO groups reach 40 grams, dosing is initiated. TG003 was dosed via IP injection at either 30 or 100 mg/kg (TG003 suspended in 2% HPMC+0.2% DOSS as in previous example). Control DIO and chow fed animals were dosed with IP injection of vehicle alone. Once dosing starts data collections was as follows: Week 1 time point includes a fasted blood glucose measurement, Week 2 blood collection, Week 3 an IPGTT and Week 4 is an endpoint blood and tissue collection.
Mice are dosed at the same time daily. Body weights are taken 2 times a week once dosing starts. Baseline measurements of fed glucose, lactate, triglycerides and insulin are taken at time 0 (commencement of dosing).
Insulin Assay: Mouse insulin levels were measured using the Linco Rat/Mouse Insulin ELISA kit (Cat. #EZRMI-13K). 0 week, 2 week and 4 week blood insulin levels are shown in FIGS. 27A, 27B and 27C respectively for 100 mg/kg TG003 study. 0 week, 2 week and 4 week blood insulin levels are shown in FIGS. 31A, 31B and 31C respectively for 30 mg/kg TG003 study.
IPGTT: Mice are fasted for a minimum of 16 hrs. A glucose reading is taken at time Zero using a glucose meter. Mice are injected with 2 g/kg D-Glucose at one minute time points. A glucose reading is taken at 15, 30, 60, and 120 minutes (Medisense Precision Extra, Blood Glucose Meter, Abbott Cat# 70297-01).

[6] = system: CLK2 repression of PGC-1alpha coactivation of HNF4alpha; test: gAF1-luciferase (HNF4alpha response element) reporter assay in HEK 293 cells; format: cell-based, human; details: 20 μM TG003
Protocol: Transient Transfections. HEK 293 were transfected using PolyFect (Qiagen). 25 ng of reporter (gAF1-Luciferase) and 25 ng of pcDNA mouse HNF4-alpha were transfected with pcDNA mouse PGC-1 alpha and pcDNA Flag-CLK2. Equal amounts of total DNA were used for all transfections by adding appropriate amounts of empty vector pcDNA. TG003 (Calbiochem) was added 4 hours after transfection and cells were harvested the next morning. The data presented is the average of 3 replicates from a single experiment, all luciferase experiments were performed at least 3 times with similar results.

[7] = system: CLK2 phosphorylation of Sirt1 in HEK 293 cells; test: Metabolic 32P labeling of Flag-HA-Sirt1 in transfected HEK 293 cells; format: cell-based, human; details: 40 uM TG003
Protocol: (§3) Cell Culture. HEK 293 Cells were cultured in DMEM+10% CCS. FAO Rat hepatocytes were grown in Hamm's F-12 media with 5% FBS. Prior to experiments or adenoviral infections media was switched to RPMI+0.5% BSA. H2.35 Mouse Hepatocytes were grown in DMEM (low glucose)+4% FBS and 2 μM Dexamethasome. Prior to experiments and infection, media was switched to DMEM (low glucose)+0.5% BSA. CLK inhibitor, TG003 (CalBiochem) was dissolved in DMSO.
as §2
Metabolic Labeling. HEK 293 were transfected as described above. […] Immunoprecipitates were resolved by SDS-PAGE and transferred to PVDF membrane, ^32PO4 was detected by exposing membrane to Phospho-imaging screen and followed by Western-Blot using anti-flag antibodies (M2, Sigma).

[8] = system: gluconeogenic genes (PGC-1alpha targets) in FAO hepatocytes; test: Northern blot of PGC-1alpha target genes in FAO hepatocytes; format: cell-based, rat
Protocol: Northern Blot and RNA analysis. FAO hepatocytes were infected with indicated adenovirus overnight in RPMI+0.5% BSA. Cells were grown for 2 more days in RPMI+0.5% BSA. Cells were treated as indicated. Total RNA was isolated using Trizol (Invitrogen). Northern blots using indicated cDNAs were performed on 15 μg of total RNA. Quantitation of RNA was performed by exposing membranes to phosphor-imager screens and analyzed by a Bio-Rad Personal Imager FX and Quantity-One quantitation software (Bio-Rad).

[9] = system: total phosphorylation of PGC-1alpha and Sirt1 in FAO cells; test: Metabolic 32P labeling of PGC-1alpha and Sirt1 in FAO hepatocytes; format: cell-based, rat; details: 40 μM TG003
Protocol: as §3
Metabolic Labeling. HEK 293 were transfected as described above. The next morning cells were switched to DMEM without PO4+10% CCS for 30 minutes, cells were then treated with or without TG003 for 30 minutes then 200 μCi of ^32PO4 was added for 2 hours. Cells were harvested and immunoprecipitation was performed as described above. Immunoprecipitates were resolved by SDS-PAGE and transferred to PVDF membrane, ^32PO4 was detected by exposing membrane to Phospho-imaging screen and followed by Western-Blot using anti-flag antibodies (M2, Sigma).
FAO Hepatocytes were infected with adenovirus as indicated in the figures for 2 days in RPMI+0.5% BSA. Metabolic labeling was performed as described above, except cells were incubated in ^32PO4 for 4 hours.

[10] = system: diet-induced obese (DIO) C57BL/6 mice; test: Oral dosing of TG003 in DIO mouse model; format: in vivo
Protocol: Twenty 9 week old C57BL/6 mice were placed on 60% kcal % fat diet (high fat diet with 60% of calories from fat; Research Diets, Inc., New Brunswick, N.J. Cat. No. D12492) and 15 mice were placed on regular chow. Mice were weighed once a week for 5 weeks, baseline fed glucose, triglycerides and insulin was measured. At approximately 6 weeks on the high fat diet, or when the average body weight of the DIO mice becomes 40 grams, dosing began at various doses and preparations. Mice were dosed daily with either vehicle (2% HPMC+0.2% DOSS) or with TG003 suspended in vehicle and dosed via oral gavage at 100 mg/kg (10 animals each in DIO group; 9 animals in vehicle chow group and 6 animals in TG003 chow group). The study was divided into DIO groups with mean average body weight/cage. Chow fed groups were also sorted by mean average body weight/cage. Body weights were measured once weekly to adjust dosing concentrations for body weight.
Baseline blood on all mice for glucose, triglycerides, insulin, etc. was taken following a one hour food withdrawal. Once dosing started, data collections were as follows: Week 1 time point included fasted blood glucose and body temps for select groups, Week 2 was a fed blood collection, Week 3 fasted blood glucose, Week 4 body temps on select groups and endpoint blood and tissue collection. Body temperature of select groups post dosing on week 1 and week 4 was also taken. Concentration of TG003 compound is adjusted to proper dose according to the mean weight for each group weekly. Final blood collection of all groups was taken 1 hour after dosing in order to determine levels of drug in blood compared to original PK. Mice were not dosed on the day of week 2 blood collections. Mice are typically dosed in the a.m. and only dosed in the p.m. on a day following a 16 hr fast. A test for Free Fatty Acids is done with the plasma final blood collection and with final plasma collection. Assays were done as described above for TG003 IP dosing example.

[11] = systemic intraperitoneal delivery, DIO mice, 30 or 100 mg/kg
[12] = FAO hepatocytes overexpressing PGC-1alpha, increasing amounts of TG003

For `O=C(/C=C/c1cccc(C(=O)NO)c1)NO` [CBHA, m-carboxy-cinnamic acid bishydroxamic acid], the “inhibition of HDAC” value (HDAC) is given as “micromolar concentration or lower”.
In the case of `C/C=C1\NC(=O)[C@H]2CSSCC/C=C/[C@H](CC(=O)N[C@H](C(C)C)C(=O)N2)OC(=O)[C@H](C(C)C)NC1=O` [Depsipeptide], the “inhibition of HDAC” value (HDAC) is listed as “micromolar concentrations”.
In the case of `O=c1cc(N2CCOCC2)oc2c(-c3ccccc3)cccc12` [LY], the “insulin-stimulated PGC-1alpha phosphorylation” value [1] is reported as “blocked”, the “insulin-stimulated SIRT1 phosphorylation” value [1] is reported as “blocked” and the “insulin induction of CLK2 alternate splicing (truncated transcript)” value [2] is reported as “blocks”.
In the case of `CCN1/C(=C/C(C)=O)Sc2ccc(OC)cc21` [TG003, (Z)-1-(3-ethyl-5-methoxy-2,3-dihydrobenzothiazol-2-ylidene) propan-2-one], the “Pepck mRNA relative to 36B4” value [3] is reported as “induction”, the “mobility of Sirt1 co-immunoprecipitated with CLK2” value [4] is reported as “shifted to a band with faster mobility” and the “drug remaining at injection site upon sacrifice” value ([5]; IP dosing, multiple injections) is reported as “observed in the intraperitoneal cavity”. For the same compound, the blood glucose levels [5, 11] was “decrease”, the blood insulin levels [5, 11] was “decrease” and the body weight [5, 11] was “decrease”. For the same compound, the “CLK2 repression of PGC-1 alpha (luciferase activity)” value [6] was “partially rescues”, the “incorporation of 32phosphate into Flag-HA-Sirt1 WT” value [7] was “noticeably decreased” and the “shift in Sirt1 mobility caused by overexpression of CLK2” value [7] was “abrogated”. For the same compound, the “insulin-stimulated PGC-1alpha phosphorylation” value [1] was “blocked”, the “insulin-stimulated SIRT1 phosphorylation” value [1] was “blocked” and the “induction of G6Pase” value [8, 12] was “seen in a dose dependent manner”. The “induction of Pepck” value [8, 12] was “seen in a dose dependent manner”, the “CLK2 repression of PGC-1alpha induction of gluconeogenic genes (G6Pase, Pepck)” value ([8]; FAO hepatocytes, 40 μM TG003 for 1 hour then Fsk+Dex) was “rescued” and the “total phosphorylation of PGC-1alpha (32phosphate relative to protein levels)” value [9] was “decreased”. For the same compound, the “total phosphorylation of Sirt1 (32phosphate relative to protein levels)” value [9] was “decreased”, the “in vivo effect on body weight seen with IP dosing” value ([10]; 100 mg/kg oral dosing) was “did not repeat” and the fed insulin ([10]; 100 mg/kg oral vs vehicle, 2 week, DIO or chow groups) was “not much of an effect”. The fed blood glucose ([10]; 100 mg/kg oral vs vehicle, 4 week, DIO or chow groups) was “not much of an effect”, the body temperature ([10]; DIO animals, 100 mg/kg oral, 1 week of dosing) was “significant drop” and the “drop in body temperature” value ([10]; DIO animals, 100 mg/kg oral, 4 weeks of dosing) was greater than 2 degree. The body temperature ([10]; chow fed group, 100 mg/kg oral) was “no significant effect” and the “insulin induction of CLK2 alternate splicing (truncated transcript)” value [2] was “blocks”.
For depudecin, the “inhibition of HDAC” value (HDAC) is given as “micromolar concentrations”.
In the case of trichostatin A [TSA], the “inhibition of HDAC” value (HDAC) is given as “potent inhibitor”.
